Experimental findings from US11739098B2 (BRISTOL-MYERS SQUIBB COMPANY, priority 2017, dated 2023) are described below.

Common to all, as to assay type: cell-based
One assay concerns the target T1, human TLR9 (Homo sapiens, UniProt Q9NR96).
T1 construct: host or cells: HEK-Blue cells (HEK293-derived reporter line)
T1 sequence (Q9NR96 26-1032): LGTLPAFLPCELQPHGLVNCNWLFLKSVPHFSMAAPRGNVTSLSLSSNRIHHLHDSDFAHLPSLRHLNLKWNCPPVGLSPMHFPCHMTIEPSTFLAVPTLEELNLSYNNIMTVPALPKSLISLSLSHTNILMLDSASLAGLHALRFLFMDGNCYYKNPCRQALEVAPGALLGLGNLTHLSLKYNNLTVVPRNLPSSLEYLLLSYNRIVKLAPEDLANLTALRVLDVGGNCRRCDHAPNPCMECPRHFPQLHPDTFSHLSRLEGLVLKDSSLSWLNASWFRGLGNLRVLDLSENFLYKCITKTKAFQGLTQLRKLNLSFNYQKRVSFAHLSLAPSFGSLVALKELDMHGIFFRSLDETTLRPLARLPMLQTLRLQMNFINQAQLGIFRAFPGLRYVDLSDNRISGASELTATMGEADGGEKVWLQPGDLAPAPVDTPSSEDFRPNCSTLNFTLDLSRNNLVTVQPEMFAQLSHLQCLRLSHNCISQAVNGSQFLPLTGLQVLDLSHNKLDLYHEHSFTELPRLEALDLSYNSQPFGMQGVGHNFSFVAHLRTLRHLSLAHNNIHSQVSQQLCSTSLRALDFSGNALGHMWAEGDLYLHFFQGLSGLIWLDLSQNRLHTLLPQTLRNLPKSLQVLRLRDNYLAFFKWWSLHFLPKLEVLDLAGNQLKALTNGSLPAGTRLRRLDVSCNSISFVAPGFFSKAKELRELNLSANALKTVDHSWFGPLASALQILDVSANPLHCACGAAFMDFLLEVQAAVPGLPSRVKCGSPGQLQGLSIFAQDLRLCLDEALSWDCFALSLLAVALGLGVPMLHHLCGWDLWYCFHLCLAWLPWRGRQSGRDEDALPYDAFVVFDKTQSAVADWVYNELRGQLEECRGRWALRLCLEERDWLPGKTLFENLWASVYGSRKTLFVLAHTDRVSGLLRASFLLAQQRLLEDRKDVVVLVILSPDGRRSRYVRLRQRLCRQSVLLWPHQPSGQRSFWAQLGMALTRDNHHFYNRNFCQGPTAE
The experiment in a line: TLR9 inhibition reporter assay (HEK-Blue cells, SEAP reporter, ODN2006 stimulation). As to conditions: HEK-Blue cells overexpressing human TLR9, SEAP reporter, ODN2006 5 nM. A digest of the protocol:
(§1)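 HEK-Blue cells overexpressing the receptor, with NF-κB/AP-1-driven SEAP, were pre-treated 30 min at room temperature with compound (0.05 nM–50 μM), then stimulated with gardiquimod 7.5 μM (TLR7), R848 15.9 μM (TLR8) or ODN2006 5 nM (TLR9). SEAP was read after 22 h at 37 °C as percent inhibition.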
On the technique in general: In a reporter assay the amount or activity of a reporter protein is the signal.

For the next assay, the target named is T2, human TLR7 (Homo sapiens, UniProt Q9NYK1).
T2 construct: host or cells: HEK-Blue cells (HEK293-derived reporter line)
T2 sequence (Q9NYK1 27-1049): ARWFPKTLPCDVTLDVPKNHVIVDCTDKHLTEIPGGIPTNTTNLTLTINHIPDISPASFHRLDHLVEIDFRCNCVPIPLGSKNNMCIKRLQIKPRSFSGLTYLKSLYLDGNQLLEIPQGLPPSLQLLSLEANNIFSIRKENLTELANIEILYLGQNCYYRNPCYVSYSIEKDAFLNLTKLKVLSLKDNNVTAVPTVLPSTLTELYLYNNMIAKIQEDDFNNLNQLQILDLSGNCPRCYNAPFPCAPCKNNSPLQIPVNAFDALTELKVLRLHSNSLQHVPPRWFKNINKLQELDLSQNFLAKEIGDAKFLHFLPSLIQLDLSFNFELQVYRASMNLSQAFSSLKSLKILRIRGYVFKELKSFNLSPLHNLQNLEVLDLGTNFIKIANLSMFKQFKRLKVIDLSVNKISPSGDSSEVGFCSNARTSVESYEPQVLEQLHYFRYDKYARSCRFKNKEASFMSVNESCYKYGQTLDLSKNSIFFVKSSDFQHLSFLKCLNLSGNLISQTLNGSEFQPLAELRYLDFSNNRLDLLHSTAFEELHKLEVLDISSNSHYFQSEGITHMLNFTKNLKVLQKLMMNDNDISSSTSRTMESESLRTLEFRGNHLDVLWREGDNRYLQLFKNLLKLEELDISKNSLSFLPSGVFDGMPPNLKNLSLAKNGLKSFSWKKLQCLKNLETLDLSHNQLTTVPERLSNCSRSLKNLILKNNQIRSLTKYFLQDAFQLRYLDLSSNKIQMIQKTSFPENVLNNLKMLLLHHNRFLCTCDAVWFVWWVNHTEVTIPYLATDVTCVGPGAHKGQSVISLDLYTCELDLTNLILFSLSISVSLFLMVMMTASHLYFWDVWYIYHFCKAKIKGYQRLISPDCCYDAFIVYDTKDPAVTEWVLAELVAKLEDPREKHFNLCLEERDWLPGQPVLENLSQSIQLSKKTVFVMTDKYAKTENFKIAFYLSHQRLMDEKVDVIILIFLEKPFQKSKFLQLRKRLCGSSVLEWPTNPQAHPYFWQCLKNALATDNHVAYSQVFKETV
Briefly: TLR7 inhibition reporter assay (HEK-Blue cells, SEAP reporter, gardiquimod stimulation). To be noted: HEK-Blue cells overexpressing human TLR7, SEAP reporter, gardiquimod 7.5 μM. A digest of the protocol:
as §1

Another assay concerns the target T3, human TLR8 (Homo sapiens, UniProt Q9NR97).
T3 construct: host or cells: HEK-Blue cells (HEK293-derived reporter line)
T3 sequence (Q9NR97 27-1041): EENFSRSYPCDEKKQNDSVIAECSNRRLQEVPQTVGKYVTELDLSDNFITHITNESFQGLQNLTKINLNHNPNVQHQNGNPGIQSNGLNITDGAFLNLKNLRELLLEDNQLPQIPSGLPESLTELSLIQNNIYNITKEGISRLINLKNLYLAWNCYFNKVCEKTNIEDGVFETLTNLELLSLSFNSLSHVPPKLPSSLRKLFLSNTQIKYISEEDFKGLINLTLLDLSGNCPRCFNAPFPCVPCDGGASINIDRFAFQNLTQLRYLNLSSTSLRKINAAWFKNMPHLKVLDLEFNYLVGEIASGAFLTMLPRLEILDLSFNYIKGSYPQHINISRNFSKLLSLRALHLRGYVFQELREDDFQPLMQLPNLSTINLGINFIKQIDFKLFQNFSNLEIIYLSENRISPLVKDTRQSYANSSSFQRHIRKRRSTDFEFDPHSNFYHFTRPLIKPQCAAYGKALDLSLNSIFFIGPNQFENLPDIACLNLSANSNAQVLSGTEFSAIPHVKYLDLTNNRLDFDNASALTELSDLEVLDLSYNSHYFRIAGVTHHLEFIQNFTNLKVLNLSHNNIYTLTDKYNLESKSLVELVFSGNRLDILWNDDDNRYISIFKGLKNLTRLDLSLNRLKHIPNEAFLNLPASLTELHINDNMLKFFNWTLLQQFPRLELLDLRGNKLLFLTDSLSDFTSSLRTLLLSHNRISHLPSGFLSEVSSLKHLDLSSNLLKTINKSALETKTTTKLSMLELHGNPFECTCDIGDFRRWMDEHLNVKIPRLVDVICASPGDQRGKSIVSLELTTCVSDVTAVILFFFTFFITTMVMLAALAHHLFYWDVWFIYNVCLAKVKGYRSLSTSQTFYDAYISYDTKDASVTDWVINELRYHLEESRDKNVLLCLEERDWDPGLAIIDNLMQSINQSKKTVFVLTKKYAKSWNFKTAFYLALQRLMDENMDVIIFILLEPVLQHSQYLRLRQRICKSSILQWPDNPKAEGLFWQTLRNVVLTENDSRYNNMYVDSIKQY
The experiment in a line: TLR8 inhibition reporter assay (HEK-Blue cells, SEAP reporter, R848 stimulation). To be noted: HEK-Blue cells overexpressing human TLR8, SEAP reporter, R848 15.9 μM. A digest of the protocol: as §1

By IC50 is commonly meant the point on the concentration scale where inhibition reaches its midpoint. Higher therefore signals a need for much substance.

Molecules are shown by their SMILES.

Regarding `COCC(CO)N1CCC(c2ccc3[nH]c(-c4cc(C)n5ccnc5c4)c(C(C)C)c3c2)CC1` (stereo not drawn) [Example 754, 2-(4-(3-isopropyl-2-(5-methylimidazo[1,2-a]pyridin-7-yl)-1H-indol-5-yl)piperidin-1-yl)-3-methoxypropan-1-ol], the figures for the IC50 at human TLR9, at human TLR7 and against human TLR8 were 100 to 1000 nM, 1000 to 50000 nM and 100 to 1000 nM, respectively.
Consider `CC(C)c1c(-c2cnc3ccnn3c2)[nH]c2ccc(C3CCN(C(=O)C[C@H](C)O)CC3)cc12` [Example 595, (S)-3-hydroxy-1-(4-(3-isopropyl-2-(pyrazolo[1,5-a]pyrimidin-6-yl)-1H-indol-5-yl)piperidin-1-yl)butan-1-one], for which the IC50 against human TLR9 is above 50000 nM; against human TLR7, above 3130 nM; against human TLR8, above 3130 nM.
`Cc1c(-c2[nH]c3ccc(C4CCNCC4)cc3c2C(C)C)nn2ncnc2c1C` [Example 32, 6-(3-isopropyl-5-(piperidin-4-yl)-1H-indol-2-yl)-7,8-dimethyl-[1,2,4]triazolo[1,5-b]pyridazine]: the IC50 is 1000 to 50000 nM on human TLR9, below 100 nM against human TLR7 and below 100 nM against human TLR8.
For the molecule `Cc1c(-c2ccc3[nH]nnc3c2)[nH]c2ccc(C3CCNCC3)cc12` [Example 52, 5-(3-methyl-5-(piperidin-4-yl)-1H-indol-2-yl)-1H-benzo[d][1,2,3]triazole], the IC50 against human TLR9 was in the range of 100 to 1000 nM; on human TLR7, 1000 to 50000 nM; at human TLR8 it was 1000 to 50000 nM.
Turning to `COc1nc(-c2[nH]c3ccc(C4CCNCC4)cc3c2C(C)C)cn2ncnc12` [Example 47, 6-(3-isopropyl-5-(piperidin-4-yl)-1H-indol-2-yl)-8-methoxy-[1,2,4]triazolo[1,5-a]pyrazine], the IC50 against human TLR9 is 1000 to 50000 nM; against human TLR7, 100 to 1000 nM; against human TLR8, above 3130 nM.
As to `CCCN1CCC(c2ccc3[nH]c(-c4cc(C)c5ncn(C)c5c4)c(C(C)C)c3c2)CC1` [Example 954, 6-(3-isopropyl-5-(1-propylpiperidin-4-yl)-1H-indol-2-yl)-1,4-dimethyl-1H-benzo[d]imidazole], the IC50 was 100 to 1000 nM at human TLR9, below 100 nM on human TLR7 and below 100 nM against human TLR8.
`Cc1cc(-c2[nH]c3ccc(C4CCN(C(=O)CN5CCOCC5)CC4)cc3c2C(C)C)cn2nnnc12` [Example 476, 1-(4-(3-isopropyl-2-(8-methyltetrazolo[1,5-a]pyridin-6-yl)-1H-indol-5-yl)piperidin-1-yl)-2-morpholinoethan-1-one]: the IC50 against human TLR9 is 1000 to 50000 nM; against human TLR7, below 100 nM; against human TLR8, below 100 nM.
Regarding `CNC(=O)CN1CCC(c2ccc3[nH]c(-c4cc(C)c5nc(C(=O)N(C)CCO)cn5c4)c(C(C)C)c3c2)CC1` [Example 345, N-(2-hydroxyethyl)-6-(3-isopropyl-5-(1-(2-(methylamino)-2-oxoethyl)piperidin-4-yl)-1H-indol-2-yl)-N,8-dimethylimidazo[1,2-a]pyridine-2-carboxamide], the figures for the IC50 against human TLR9, at human TLR7 and on human TLR8 were 1000 to 50000 nM, below 100 nM and 100 to 1000 nM, respectively.
As for `CCc1c(-c2cnc3[nH]ncc3c2)[nH]c2ccc(C3CCN(C4CCN(C(C)C)CC4)CC3)cc12` [Example 819, 5-(3-ethyl-5-(1′-isopropyl-[1,4′-bipiperidin]-4-yl)-1H-indol-2-yl)-1H-pyrazolo[3,4-b]pyridine], the IC50 against human TLR9 is 100 to 1000 nM; against human TLR7 it was 100 to 1000 nM; at human TLR8, below 100 nM.
`CNC(=O)CN1CCC(c2ccc3[nH]c(-c4cc(C)c5nnnn5c4)c(C(C)C)c3c2)CC1` [Example 312, 2-(4-(3-isopropyl-2-(8-methyltetrazolo[1,5-a]pyridin-6-yl)-1H-indol-5-yl)piperidin-1-yl)-N-methylacetamide]: the IC50 is 1000 to 50000 nM at human TLR9, below 100 nM against human TLR7 and below 100 nM against human TLR8.
Consider `CNC(=O)CN1CCC(c2ccc3[nH]c(-c4cn5ccnc5c(C)c4C)c(C(C)C)c3c2)CC1` [Example 413, 2-(4-(2-(7,8-dimethylimidazo[1,2-a]pyridin-6-yl)-3-isopropyl-1H-indol-5-yl)piperidin-1-yl)-N-methylacetamide], for which the results for the IC50 against human TLR9, on human TLR7 and at human TLR8 were 100 to 1000 nM, below 100 nM and below 100 nM, respectively.
On to `CC(C)c1c(-c2ccnc3[nH]cnc23)[nH]c2ccc(C3CCNCC3)cc12` [Example 61, 7-(3-isopropyl-5-(piperidin-4-yl)-1H-indol-2-yl)-3H-imidazo[4,5-b]pyridine], for which the IC50 was 100 to 1000 nM against human TLR9, below 100 nM against human TLR7 and below 100 nM at human TLR8.
For `Cc1cn2cc(-c3[nH]c4ccc(C5CCN(C(=O)CC(C)O)CC5)cc4c3C(C)C)c(C)cc2n1` (stereo not drawn) [Example 596, 1-(4-(2-(2,7-dimethylimidazo[1,2-a]pyridin-6-yl)-3-isopropyl-1H-indol-5-yl)piperidin-1-yl)-3-hydroxybutan-1-one], the values for the IC50 against human TLR9, against human TLR7 and on human TLR8 were 1000 to 50000 nM, below 100 nM and above 3130 nM, respectively.
